Assay [1] deals with T1, CBM71-1 (Streptococcus pneumoniae, UniProt Q8DQP4).
T1 construct: gene bgaA; pET28-based expression in E. coli; exact borders not in text
As to the kind of experiment: UV difference spectroscopy. The assay is classed as binding. Particulars: 25 °C; too weak to quantify.

The target in assay [2] is T2, CBM71-2 (Streptococcus pneumoniae, UniProt Q8DQP4).
T2 construct: gene bgaA; pET28-based expression in E. coli; exact borders not in text
Put plainly: UV difference spectroscopy. The format is binding. To be noted: 25 °C; too weak to quantify.

Assay [3] addresses T1, CBM71-1. Put plainly: isothermal titration calorimetry. The assay is classed as binding. Particulars: PBS, 25 °C. (ITC needs no label: the signal is the heat of the interaction.)
In assay [4] the target is T2, CBM71-2. Put plainly: isothermal titration calorimetry. Particulars: PBS, 25 °C. The assay is classed as binding.
Assay [5] deals with T3, BgaA catalytic region (GH2; SpBgaA) (Streptococcus pneumoniae, UniProt A0A0H2UP19).
T3 construct: N-terminal catalytic region, domains I-V (GH2 region printed as residues 138-993; SpBgaA146-990 in cell assay); pET28-based expression in E. coli; source strain and exact borders not in main text
Put plainly: steady-state kinetics, UV-visible spectrophotometry; apparent Km/Vmax against inhibitor concentration. The assay is classed as biochemical.

Assay [6] addresses T3, BgaA catalytic region (GH2; SpBgaA). As to the kind of experiment: isothermal titration calorimetry. The assay is classed as binding.

Five compounds from paper PMC4161441, “Unravelling the Multiple Functions of the Architecturally Intricate Streptococcus pneumoniae β-galactosidase, BgaA” (PLoS Pathogens, 2014) can be followed below.

Structures are written as SMILES.

A word on the Kd: it is the concentration at which binding is half-saturated. Low values mean a tighter complex, high ones a looser complex.

T1 sequence (Q8DQP4 entry or part of it): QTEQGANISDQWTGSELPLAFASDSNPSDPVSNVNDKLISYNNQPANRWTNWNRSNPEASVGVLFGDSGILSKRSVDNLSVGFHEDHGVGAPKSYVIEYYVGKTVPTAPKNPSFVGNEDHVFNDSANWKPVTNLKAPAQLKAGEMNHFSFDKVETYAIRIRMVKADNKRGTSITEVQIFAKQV
T2 sequence (Q8DQP4 entry or part of it): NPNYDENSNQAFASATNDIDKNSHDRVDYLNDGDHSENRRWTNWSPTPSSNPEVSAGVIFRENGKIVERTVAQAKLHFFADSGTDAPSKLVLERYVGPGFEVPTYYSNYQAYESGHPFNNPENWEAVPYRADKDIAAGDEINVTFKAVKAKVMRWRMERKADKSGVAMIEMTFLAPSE

For `OC[C@H]1OC(O)[C@H](O)[C@@H](O)[C@H]1O` (stereo partly drawn) [D-galactose], the UV difference spectroscopy entry is recorded as “only D-galactose gave a signature UV difference spectrum consistent with sugar binding” in assay [1] and “For both CBMs, the binding to galactose was too weak to quantify” in assay [2].
Regarding `CC(=O)N[C@H]1C(O)O[C@H](CO)[C@@H](O[C@@H]2O[C@H](CO)[C@H](O)[C@H](O)[C@H]2O)[C@@H]1O` (stereo partly drawn) [LacNAc], the figures for the Kd in assay [3] and in assay [4] were 251 µM and 247 µM, respectively.
`OC[C@H]1CNC[C@@H](O)[C@H]1O` [galactoisofagomine]: in assay [5], the Ki is 0.025 µM. The compound also showed a Kd in assay [6] of 0.026 µM.
In the case of `OC[C@H]1NC(O)[C@H](O)[C@@H](O)[C@H]1O` (stereo partly drawn) [galactonojirimycin], the Ki in assay [5] worked out at 33.9 µM.
`OC[C@H]1O[C@@H](O[C@H]2[C@H](O)[C@@H](O)C(O)O[C@@H]2CO)[C@H](O)[C@@H](O)[C@H]1O` (stereo partly drawn) [lactose]: the Kd in assay [3] was found to be 368 µM; in assay [4] it was 378 µM.
